Test results as given in patent publication US7425556B2 (priority 2005, dated 2008).
pKi: −log10 of the molar value.

Experiments:
[1] = molecular target: T1, GABAA1 (human α1β2γ2 GABAA receptor) (Homo sapiens, UniProt P14867+P18507); assay: Two-electrode voltage-clamp in Xenopus oocytes, potentiation of GABA EC10 current, GABAA1; type: cell-based; settings: percentage potentiation of GABA EC10 current divided by that of diazepam
T1 construct: expressed in transfected cells; host or cells: Xenopus laevis oocytes injected with capped cRNA
T1 sequence (P14867 28-456): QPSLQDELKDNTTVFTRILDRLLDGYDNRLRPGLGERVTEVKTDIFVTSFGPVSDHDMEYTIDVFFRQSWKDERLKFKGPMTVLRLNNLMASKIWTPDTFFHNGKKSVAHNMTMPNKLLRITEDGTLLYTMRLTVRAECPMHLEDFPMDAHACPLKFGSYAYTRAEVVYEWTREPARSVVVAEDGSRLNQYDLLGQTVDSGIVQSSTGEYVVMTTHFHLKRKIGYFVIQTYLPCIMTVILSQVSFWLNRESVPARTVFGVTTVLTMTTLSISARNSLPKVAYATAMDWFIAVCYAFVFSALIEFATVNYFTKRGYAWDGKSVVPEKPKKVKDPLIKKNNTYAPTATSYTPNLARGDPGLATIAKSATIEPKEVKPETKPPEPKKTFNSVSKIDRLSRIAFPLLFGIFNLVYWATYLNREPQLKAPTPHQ
T1 sequence (P47870 25-512 partner limits assumed): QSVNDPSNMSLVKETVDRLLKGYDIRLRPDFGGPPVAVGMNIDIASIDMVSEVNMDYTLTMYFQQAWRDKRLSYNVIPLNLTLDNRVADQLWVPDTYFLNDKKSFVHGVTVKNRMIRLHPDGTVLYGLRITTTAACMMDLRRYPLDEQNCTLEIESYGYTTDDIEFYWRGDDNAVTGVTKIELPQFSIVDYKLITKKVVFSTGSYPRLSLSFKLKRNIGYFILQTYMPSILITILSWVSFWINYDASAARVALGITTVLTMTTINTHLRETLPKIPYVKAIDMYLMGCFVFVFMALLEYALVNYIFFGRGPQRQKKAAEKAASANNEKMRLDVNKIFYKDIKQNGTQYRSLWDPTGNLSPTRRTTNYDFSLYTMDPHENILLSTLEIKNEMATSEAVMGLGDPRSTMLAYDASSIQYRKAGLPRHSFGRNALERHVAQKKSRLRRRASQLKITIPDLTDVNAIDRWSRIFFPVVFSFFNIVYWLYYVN
T1 sequence (P18507 40-475): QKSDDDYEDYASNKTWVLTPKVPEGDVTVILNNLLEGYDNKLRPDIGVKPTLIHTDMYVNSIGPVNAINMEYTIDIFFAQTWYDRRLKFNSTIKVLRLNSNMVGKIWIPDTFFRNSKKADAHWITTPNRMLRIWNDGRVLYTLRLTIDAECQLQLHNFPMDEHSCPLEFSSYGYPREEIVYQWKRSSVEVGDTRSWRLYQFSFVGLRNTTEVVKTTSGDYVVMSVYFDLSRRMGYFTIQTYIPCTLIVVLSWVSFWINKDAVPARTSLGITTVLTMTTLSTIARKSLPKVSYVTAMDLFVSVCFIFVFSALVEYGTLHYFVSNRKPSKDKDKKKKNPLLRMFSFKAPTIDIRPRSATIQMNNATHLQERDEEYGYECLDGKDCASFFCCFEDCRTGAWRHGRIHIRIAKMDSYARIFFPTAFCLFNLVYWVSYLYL
Description: (§1) Presently available GABAA modulator anxiolytics work via interactions at the classical benzodiazepine binding site. To a large degree these anxiolytics lack GABAA receptor subtype-selectivity. The subtype-selective GABAA receptor modulators may offer more advantages. […] Sedation, a side-effect common to all marketed benzodiazepines, is believed to be mediated by interactions at GABAARs containing the α1 subunit. To develop anxiolytics with minimal liabilities due to interactions with other subunits, an electrophysiological assay was developed to screen modulatory effects of various compounds on different GABA subunit combinations heterologously expressed in Xenopus oocytes.
(§2) GABAA receptors were heterologously expressed in Xenopus oocytes by injecting cRNA corresponding to human α1, α2, α3, α5, β2, β3 and γ2 subunits of the GABAA receptor genes. The specific subunit combinations (subtypes) were as follows: α1β2γ2, α2β3γ2, α3β3γ2, and α5β3γ2. The EC10 of GABA was approximated for each cell. Stability of GABA-mediated (EC10) current was established. Modulatory effect of test compound was determined and compared across subtypes. […] Thus, the assay can characterize modulatory effects and determine subtype selectivity of test compounds on major subtypes of GABAA receptors.
(§3) Xenopus laevis frogs (Xenopus I, Kalamazoo, MI) were anesthetized using 0. […] Surgically removed ovarian lobes were teased out in OR2 solution (82 NaCl, 2.5 KCl, 5 HEPES, 1.5 NaH2PO4, 1 MgCl2, 0.1 EDTA, in mM, pH 7.4). The acolytes were deflocculated by incubation in 25 mL OR2 containing 0.2% collagens 1A (SIGMA) two times for about 60 minutes on a platform shaker and stored in Leibovitz's L-15 medium. Acolytes were injected the following day in 0.5× Leibovitz's L-15 medium containing […] gentamycin, 10 units/ml penicillin, and […] streptomycin.
(§4) Capped cRNAs from the linear zed vectors containing human α1, β2 and γ2 subunits of the GABAA receptor genes were mixed in ratio of […]. Acolytes were injected with 25-50 nL of mixed RNA with an appx molar ratio for α1, β2 and γ2 as 1:1:10. Acolyte recordings were done 2-10 days after injection. The same methods apply to subtypes derived from α2β3γ2, α3β3γ2, and α5β3γ2, except for 1:1:1 ratio was used for α, β, and γ subunits.
(§5) All measurements were done in a medium containing ND-96 (96 NaCl, 2 KCl, 1.8 CaCl2.2H2O, 1 MgCl2.6H2O, 5 HEPES, in mM, pH 7.5). Two-electrode voltage-clamp recording was carried out using Opus press amplifier (Axon Instruments, Foster City, Calif.), which allows simultaneous recording from 8 acolytes. Acolytes were impaled with two electrodes of 1-2 MΩ tip resistance when filled with 3M KCl. Recordings were begun when membrane potential became stable at potentials negative to −50-−60 mV. Membrane potential was held at −60 mV. […] The concentration of GABA corresponded to the EC10 value calculated for each acolyte. The modulator pulses started 30 s before the GABA pulse so as to allow preoccupation with the modulator. A set of 3 pulses with just GABA without modulator was given prior to the modulator-containing pulses to define the baseline GABA response. Two acolytes per each experiment were dedicated to observe the effect of diazepam on GABA response to ensure the presence of γ subunit in the GABAA pantomimic complex, which imparts diazepam sensitivity to the complex.
(§6) Current amplitude (i) was measured from baseline to peak using Clamp fit (Axon Inst., Foster City, Calif.). Potentiating was calculated as percent change from the baseline GABA current flux 100×(imod/icontrol)−1) where imod=current mediated by modulator+GABA and icontrol=current mediated by GABA alone. […] Similarly, a value of −50% potentiating means the presence of modulator caused a 50% decrease in the control current.

[2] = molecular target: T2, GABAA2 receptors (α2, β3, γ2 receptor subunits) (Homo sapiens, UniProt P18507+P47869); assay: biochemical; settings: [3H]-Flunitrazepam ~2 nM, α2β3γ2 Sf9 membranes, 1 hr at 4° C.; read-out: GABAA2 Binding Ki
T2 construct: host or cells: Sf9 cells (membranes)
T2 sequence (P47869 29-451): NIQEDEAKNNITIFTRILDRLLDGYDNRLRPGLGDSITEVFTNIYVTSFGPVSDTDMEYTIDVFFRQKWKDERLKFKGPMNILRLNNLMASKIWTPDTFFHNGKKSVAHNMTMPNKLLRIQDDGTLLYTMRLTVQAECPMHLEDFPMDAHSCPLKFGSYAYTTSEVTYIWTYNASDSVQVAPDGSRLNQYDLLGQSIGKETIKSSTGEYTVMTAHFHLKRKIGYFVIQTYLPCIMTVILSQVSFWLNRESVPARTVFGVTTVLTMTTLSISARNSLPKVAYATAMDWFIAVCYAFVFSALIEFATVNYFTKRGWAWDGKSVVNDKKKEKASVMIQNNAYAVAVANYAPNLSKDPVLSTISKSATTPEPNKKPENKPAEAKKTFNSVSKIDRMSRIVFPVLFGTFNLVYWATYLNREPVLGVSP
T2 sequence (P28472 26-473 partner): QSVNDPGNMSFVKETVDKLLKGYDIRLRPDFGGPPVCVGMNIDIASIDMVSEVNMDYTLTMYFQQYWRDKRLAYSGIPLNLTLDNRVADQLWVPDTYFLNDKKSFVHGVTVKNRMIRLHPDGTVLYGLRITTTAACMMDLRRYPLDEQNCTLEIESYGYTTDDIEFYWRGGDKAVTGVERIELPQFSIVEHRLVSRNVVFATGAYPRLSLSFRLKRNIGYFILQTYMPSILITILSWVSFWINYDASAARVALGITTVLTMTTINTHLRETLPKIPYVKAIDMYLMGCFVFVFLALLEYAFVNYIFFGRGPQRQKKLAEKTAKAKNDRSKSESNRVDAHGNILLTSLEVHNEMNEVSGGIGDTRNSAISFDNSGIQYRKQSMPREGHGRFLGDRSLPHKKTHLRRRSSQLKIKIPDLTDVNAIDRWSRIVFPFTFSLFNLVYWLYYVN
T2 sequence (P18507 40-475): as the sequence (P18507 40-475) above
Method: In some embodiments, the binding test was directed to a subtype of GABAA receptors, such as GABAA1 receptors (i.e., those containing the α1 subunit), GABAA2 receptors (i.e., those containing the α2 subunit), GABAA3 receptors (i.e., those containing the α3 subunit) and GABAA5 receptors (i.e., those containing the α5 subunit).
[formula] Method FF GABAA2 Binding Method Reagents
Assay and Wash Buffer: 50 mM Tris-Citrate, 200 mM NaCl, pH 7.8
Compounds at 10 mM in DMSO: Put 75 μl in column 1 of compound plate.
Flumazenil, 10 mM (for NSB)
[^3H]-Flunitrazepam (Cat #NET567): Prepare 10× stock=20 nM, [F} in assay=˜2 nM
1. […] Add 5 ul of 30 uM flumazenil to wells 12 D-E for 50% control wells.
2. Spot 2 μl of compound dilutions into dry plate (Automation Program 3). Manually spot 2 μl 10 mM flumazenil into wells 12 F-H for nonspecific control.
3. Make 1:100 dilution in assay buffer (2 μl into 200 μl) and dispense 25 μl compound into assay plates (Automation Program 4).
4. Dispense 200 μl membranes into assay plate (Automation Program 5).
5. Add 25 μl [^3H]-Flunitrazepam (Automation Program 6). Incubate for 1 hr at 4° C.
6. Collect membranes on a cell harvester onto GF/B filter plates (pre-wet with dH2O and wash 5×400 μl/well, with cold assay buffer. (First 3 washes are considered hot; last two are cold.)
7. Dry plates for 2-3 hours at RT.
8. Add 40 μl Microsecond 40/well (Automation Program 7); seal plates. Count on a Top Count.
Data is analyzed by calculating percent of control, IC50, and Kid in an Lift template. The following formula is used in the templates: […]

[3] = molecular target: T3, GABAA2 (human α2β3γ2 GABAA receptor) (Homo sapiens, UniProt P18507+P47869); assay: Two-electrode voltage-clamp in Xenopus oocytes, potentiation of GABA EC10 current, GABAA2; type: cell-based; settings: percentage potentiation of GABA EC10 current divided by that of diazepam
T3 construct: expressed in transfected cells; host or cells: Xenopus laevis oocytes injected with capped cRNA
T3 sequence (P47869 29-451): as the sequence (P47869 29-451) above
T3 sequence (P28472 26-473 partner): as the sequence (P28472 26-473 partner) above
T3 sequence (P18507 40-475): as the sequence (P18507 40-475) above
Description: as §1, §2, §3, §4, §5, §6

| Compound | Relative Potentiation for GABAA1 [1] | pKi [2] | Relative Potentiation for GABAA2 [3] |
| --- | --- | --- | --- |
| CCCNC(=O)c1nnc2c(-c3cccc(F)c3F)cccc2c1N | −0.11 | 9.25 | 0.17 |
| CCCNC(=O)c1nnc2c(-c3ccc(OC)nc3OC)cccc2c1N | 0.17 | 9.25 | 0.25 |
| CCCNC(=O)c1nnc2c(-c3ccc(F)cc3OC)c(F)ccc2c1N | −0.028 | 9.25 | 0.18 |
| CCCNC(=O)c1nnc2c(-c3ccc(OC)cc3F)c(F)ccc2c1N | 0.053 | 9.21 | 0.18 |
| CCCNC(=O)c1nnc2c(-c3cccc(C)c3C)c(F)ccc2c1N | 0.11 | 9.21 | 0.13 |
| COc1cccc(F)c1-c1cccc2c(N)c(C(=O)NC3CC3)nnc12 | −0.048 | 9.16 | 0.16 |
| CCCNC(=O)c1nnc2c(-c3cc(Cl)ccc3Cl)cccc2c1N | 0.12 | 9.15 | 0.21 |
| CCCNC(=O)c1nnc2c(-c3cc(F)ccc3C)c(F)ccc2c1N | 0.032 | 9.13 | 0.12 |
| CCCNC(=O)c1nnc2c(-c3cc(C)ccc3F)cccc2c1N | 0.095 | 9.07 | 0.37 |
| CCCNC(=O)c1nnc2c(-c3cnc(OC)nc3OC)c(F)ccc2c1N | 0.12 | 9.04 | 0.39 |
| CCCNC(=O)c1nnc2c(-c3cc(C)ccc3OC)c(F)ccc2c1N | 0.23 | 9.03 | 0.37 |
| CCCNC(=O)c1nnc2c(-c3cccc(OC)c3F)c(F)ccc2c1N | 0.05 | 9.03 | 0.23 |
| CCCNC(=O)c1nnc2c(-c3cc(F)ccc3OC)c(F)ccc2c1N | 0.085 | 9.01 | 0.22 |
| CCCNC(=O)c1nnc2c(-c3cc(F)ccc3F)cccc2c1N | −0.078 | 9.00 | 0.29 |
| CCCNC(=O)c1nnc2c(-c3ccccc3)c(F)ccc2c1N | −0.093 | 9.00 | 0.02 |
| CCCNC(=O)c1nnc2c(-c3cc(Cl)ccc3OC)cccc2c1N | 0.38 | 8.95 | 0.4 |
| CCCNC(=O)c1nnc2c(-c3cccnc3F)cccc2c1N | −0.083 | 8.95 | 0.17 |
| CCCNC(=O)c1nnc2c(-c3cccc(C#N)c3)cccc2c1N | 0.088 | 8.93 | 0.31 |

| Compound | Relative Potentiation for GABAA1 [1] | pKi [2] | Relative Potentiation for GABAA2 [3] |
| --- | --- | --- | --- |
| CCCNC(=O)c1nnc2c(-c3cc(OC)ccc3Cl)c(F)ccc2c1N | 0.14 | 8.90 | 0.19 |
| CCCNC(=O)c1nnc2c(-c3cc(C)ccc3C)c(F)ccc2c1N | 0.21 | 8.88 | 0.28 |
| CCCNC(=O)c1nnc2c(-c3cc(C(F)(F)F)ccc3Cl)cccc2c1N | 0.47 | 8.87 | 0.59 |
| CCCNC(=O)c1nnc2c(-c3cc(F)c(OC)cc3F)cccc2c1N | 0.016 | 8.83 | 0.21 |
| CCCNC(=O)c1nnc2c(-c3ccncc3)cccc2c1N | −0.038 | 8.78 | 0.1 |
| CCCNC(=O)c1nnc2c(-c3ccc(N(C)C)cc3)cccc2c1N | 0.07 | 7.58 | 0.18 |
| CCCNC(=O)c1nnc2c(-c3ccc(C)cc3)cccc2c1N | 0.013 | 7.54 | 0.11 |
| CCCNC(=O)c1nnc2c(-c3ccc4[nH]ccc4c3)cccc2c1N | 0.15 | 7.46 | 0.16 |
| CNC(=O)c1nnc2c(-c3cc(C)ccc3OC)cccc2c1N | 0.19 | 7.45 | 0.43 |
| CCCNC(=O)c1nnc2c(-c3cc(C)c(OC)c(C)c3)cccc2c1N | 0.79 | 7.45 | 0.32 |
| CCCNC(=O)c1nnc2c(-c3ccc4ccccc4c3)cccc2c1N | 0.22 | 7.36 | 0.09 |
| CCCNC(=O)c1nnc2c(-c3cc(F)ccc3F)c(F)ccc2c1N | 0.013 | 7.34 | 0.098 |
| CCCNC(=O)c1nnc2c(-c3cccc(OC(F)(F)F)c3)cccc2c1N | 0.87 | 7.32 | 0.48 |
| CCCNC(=O)c1nnc2c(-c3cccc(C(=O)O)c3)cccc2c1N | −0.038 | 7.27 | 0.08 |
| CCCNC(=O)c1nnc2c(-c3cc(OC)c(OC)c(OC)c3)cccc2c1N | 0.4 | 7.25 | 0.67 |
| CCCNC(=O)c1nnc2c(-c3ccccc3)c(OC)ccc2c1N | 0.12 | 7.04 | 0.08 |
| CCCNC(=O)c1nnc2c(-c3ccc(F)c(-c4ccc(F)cc4C#N)c3)cccc2c1N | 0.09 | 6.82 | 0.023 |
| CCCNC(=O)c1nnc2c(-c3cc(C(F)(F)F)cc(C(F)(F)F)c3)cccc2c1N | 0.44 | 6.45 | 0.13 |
